# Earlier results, collected in article PMC3461233 (Angewandte Chemie (International ed. in English), 2012).
substance,measurement,value
Arg9,spontaneous translocation across synthetic membranes,does not translocate spontaneously
